Measured values from the Kinase Knowledgebase extract (Sharma et al. 2016).

Each molecule was assayed against PIK3CA (human) (UniProt P42336) (assay: Assessment of PIK3CA Kinase Activity).
Chain of PIK3CA (human) (P42336 whole entry, looked up): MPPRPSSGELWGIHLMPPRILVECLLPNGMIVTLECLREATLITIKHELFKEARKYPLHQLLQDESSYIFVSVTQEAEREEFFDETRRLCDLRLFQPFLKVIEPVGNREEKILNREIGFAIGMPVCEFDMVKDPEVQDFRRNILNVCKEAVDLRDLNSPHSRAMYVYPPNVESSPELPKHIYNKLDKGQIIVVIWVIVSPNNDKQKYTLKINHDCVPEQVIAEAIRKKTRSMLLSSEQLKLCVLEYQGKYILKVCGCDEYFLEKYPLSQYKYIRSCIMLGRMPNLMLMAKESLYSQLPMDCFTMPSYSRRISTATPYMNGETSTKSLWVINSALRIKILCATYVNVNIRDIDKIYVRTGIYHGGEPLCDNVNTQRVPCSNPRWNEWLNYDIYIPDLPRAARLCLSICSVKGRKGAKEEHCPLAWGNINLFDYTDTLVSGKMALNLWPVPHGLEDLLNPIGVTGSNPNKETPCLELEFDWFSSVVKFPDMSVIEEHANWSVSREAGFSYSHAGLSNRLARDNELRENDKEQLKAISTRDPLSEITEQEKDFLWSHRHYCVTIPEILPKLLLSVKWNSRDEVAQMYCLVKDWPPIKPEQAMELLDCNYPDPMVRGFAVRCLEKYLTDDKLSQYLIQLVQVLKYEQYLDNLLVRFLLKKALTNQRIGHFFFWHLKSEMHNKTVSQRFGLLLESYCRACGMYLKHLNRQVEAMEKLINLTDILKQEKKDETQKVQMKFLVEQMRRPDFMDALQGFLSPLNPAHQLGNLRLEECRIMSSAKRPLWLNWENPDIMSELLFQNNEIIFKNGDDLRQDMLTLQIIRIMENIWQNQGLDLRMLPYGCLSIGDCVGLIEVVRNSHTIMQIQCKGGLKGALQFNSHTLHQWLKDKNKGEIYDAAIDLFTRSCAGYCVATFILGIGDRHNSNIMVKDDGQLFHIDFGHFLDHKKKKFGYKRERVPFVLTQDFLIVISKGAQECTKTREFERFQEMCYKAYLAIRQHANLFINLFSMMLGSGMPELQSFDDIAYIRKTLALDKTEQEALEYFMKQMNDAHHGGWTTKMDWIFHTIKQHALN

| Structure (SMILES) | IC50 |
| --- | --- |
| Cc1cc(-c2cnc3nc[nH]c3c2)cc2c1OCCN(c1nc(CN(C)CC(F)F)nc(C)c1C(C)C)C2 | ≤ 100 nM |
| CCNC(=O)c1nc(C)c(C(C)C)c(N2CCOc3c(C)cc(-c4cnc5sc(N)nc5c4)cc3C2)n1 | ≤ 100 nM |
| Cc1cc(-c2cnc3sc(N)nc3c2)cc2c1OCCN(c1nc(NCCN(C)C)nc(C)c1C(C)C)C2 | ≤ 100 nM |
| COCCc1c(C)nc(N)nc1N1CCOc2c(C)cc(-c3cnc4sc(N)nc4c3)cc2C1 | ≤ 100 nM |
| CCN(CCF)Cc1nc(C)c(C(C)C)c(N2CCOc3c(C)cc(-c4cnc5sc(N)nc5c4)cc3C2)n1 | ≤ 100 nM |
| Cc1cc(-c2cnc3sc(N)nc3c2)cc2c1OCCN(c1nc(CNCC(F)(F)F)nc(C)c1C(C)C)C2 | ≤ 100 nM |
| Cc1cc(-c2nnc(N)s2)cc2c1OCCN(c1ncnc(C)c1C(C)C)C2 | ≤ 100 nM |
| Cc1cc(-c2cnc3sc(N)nc3c2)cc2c1OCCN(c1nc(C3CC3)nc(C)c1C(C)C)C2 | ≤ 100 nM |
| Cc1cc(-c2cnc3sc(N)nc3c2)cc2c1OCCN(c1ncnc(C)c1C(C)C)C2 | ≤ 100 nM |
| CCc1nc(CN(C)C)nc(N2CCOc3c(C)cc(-c4cnc5sc(N)nc5c4)cc3C2)c1CC | ≤ 100 nM |
| Cc1cc(-c2cnc3sc(N)nc3c2)cc2c1OCCN(c1nc(N)ncc1C(C)C)C2 | ≤ 100 nM |
| Cc1cc(-c2cnc3sc(N)nc3c2)cc2c1OCCN(c1nc(CN(C)C(C)(C)C)nc(C)c1C(C)C)C2 | ≤ 100 nM |
| COC(C)c1c(C)nc(C)nc1N1CCOc2c(C)cc(-c3cnc4sc(N)nc4c3)cc2C1 (configuration not stated) | ≤ 100 nM |
| Cc1cc(-c2cnc(Cl)c(NS(C)(=O)=O)c2)cc2c1OCCN(c1ncc(C#N)c(N)n1)C2 | ≤ 100 nM |
| Cc1cc(-c2cnc3sc(N)nc3c2)cc2c1OCCN(c1nc(N)ccc1C#N)C2 | ≤ 100 nM |
| Cc1cc(-c2cnc(Cl)c(NS(C)(=O)=O)c2)cc2c1OCCN(c1nc(N)nc(C)c1C(C)C)C2 | ≤ 100 nM |
| Cc1nc2c(c(N3CCOc4c(C)cc(-c5cnc6sc(N)nc6c5)cc4C3)n1)CC(C)(C)CC2 | ≤ 100 nM |
| Cc1cc(-c2cnc3sc(N)nc3c2)cc2c1OCCN(c1nc(N)nc(C)c1C)C2 | ≤ 100 nM |
| COCCc1cnc(C)nc1N1CCOc2c(C)cc(-c3cnc4sc(N)nc4c3)cc2C1 | ≤ 100 nM |
| Cc1cc(-c2cnc3sc(N)nc3c2)cc2c1OCCN(c1nccnc1C#N)C2 | 100 to 500 nM |
| Cc1cc(-c2cnn(C)c2)cc2c1OCCN(c1nc(N)nc(C)c1C(C)C)C2 | 100 to 500 nM |
| CCNCc1nc(C)c(C(C)C)c(N2CCOc3c(C)cc(-c4cnc5sc(N)nc5c4)cc3C2)n1 | ≤ 100 nM |
| CCN(CC)Cc1nc(C)c(C(C)C)c(N2CCOc3c(C)cc(-c4cnc5sc(N)nc5c4)cc3C2)n1 | ≤ 100 nM |
| COCCc1nc(C)c(C(C)C)c(N2CCOc3c(C)cc(-c4cnc5sc(N)nc5c4)cc3C2)n1 | ≤ 100 nM |
| COc1ccc(-c2cc(C)c3c(c2)CN(c2nc(N)nc(C)c2C(C)C)CCO3)cn1 | ≤ 100 nM |
| Cc1cc(-c2cnc3sc(N)nc3c2)cc2c1OCCN(c1nc(N)nc(C)c1C(C)C)C2 | ≤ 100 nM |

| Structure (SMILES) | IC50 |
| --- | --- |
| CNc1nc(-c2cc(C)c3c(c2)CN(c2nc(N)nc(C)c2C(C)C)CCO3)cs1 | 100 to 500 nM |
| Cc1ncc(-c2cc(C)c3c(c2)CN(c2nc(N)nc(C)c2C(C)C)CCO3)s1 | 100 to 500 nM |
| Cc1nc2ccc(-c3cc(C)c4c(c3)CN(c3ncnc5ccc(I)cc35)CCO4)cc2[nH]1 | ≤ 100 nM |
| Cc1cc(-c2cnc(Cl)c(NS(C)(=O)=O)c2)cc2c1OCCN(c1nc(CNCC(F)F)nc(C)c1C(C)C)C2 | ≤ 100 nM |
| Cc1ncc(C(C)C)c(N2CCOc3c(C)cc(-c4nnc(N)s4)cc3C2)n1 | ≤ 100 nM |
| Cc1cc(-c2nnc(N)s2)cc2c1OCCN(c1nc(CNCC(F)F)nc(C)c1C(C)C)C2 | ≤ 100 nM |
| Cc1cc(-c2cnc3sc(N)nc3c2)cc2c1OCCN(c1ncc(C(F)(F)F)c(N)n1)C2 | 100 to 500 nM |
| COc1cc(-c2cnc3sc(N)nc3c2)cc2c1OCCN(c1nc(N)nc(C)c1C(C)C)C2 | ≤ 100 nM |
| COCC(C)c1c(C)nc(C)nc1N1CCOc2c(C)cc(-c3cnc4sc(N)nc4c3)cc2C1 (configuration not stated) | ≤ 100 nM |
| CCN(Cc1nc(C)c(C(C)C)c(N2CCOc3c(C)cc(-c4cnc5nc[nH]c5c4)cc3C2)n1)CC(F)F | ≤ 100 nM |
| Cc1cc(-c2cnc3sc(N)nc3c2)cc2c1OCCN(c1nc(CN3CCC(F)(F)C3)nc(C)c1C(C)C)C2 | ≤ 100 nM |
| C=Cc1c(C)nc(N)nc1N1CCOc2c(C)cc(-c3cnc4sc(N)nc4c3)cc2C1 | ≤ 100 nM |
| Cc1cc(-c2cnc(N)s2)cc2c1OCCN(c1nc(N)nc(C)c1C(C)C)C2 | ≤ 100 nM |
| Cc1cc(-c2cnc3sc(N)nc3c2)cc2c1OCCN(c1ncc(C(N)=O)c(N)n1)C2 | 100 to 500 nM |
| Cc1cc(-c2cnc3sc(N)nc3c2)cc2c1OCCN(c1nc(N)nc3c1CC(C)(C)CC3)C2 | ≤ 100 nM |
| Cc1cc(-c2cnc(Cl)c(NS(=O)(=O)C(F)(F)F)c2)cc2c1OCCN(c1nc(N)nc(C)c1C(C)C)C2 | ≤ 100 nM |
| Cc1cc(-c2ccc(-c3ncc[nH]3)cc2)cc2c1OCCN(c1nc(N)nc(C)c1C(C)C)C2 | 100 to 500 nM |
| Cc1cc(-c2cnc3nc[nH]c3c2)cc2c1OCCN(c1nc(CNCC(F)F)nc(C)c1C(C)C)C2 | ≤ 100 nM |
| CCc1nc(CN(C)C)nc(N2CCOc3c(C)cc(-c4cnc5sc(N)nc5c4)cc3C2)c1C(C)C | ≤ 100 nM |
| Cc1cc(-c2cnc3sc(N)nc3c2)cc2c1OCCN(c1nc(CNCC(F)F)nc(C)c1C(C)C)C2 | ≤ 100 nM |
| Cc1cc(-c2cnc3sc(N)nc3c2)cc2c1OCCN(c1ncnc(Cl)c1C(C)C)C2 | ≤ 100 nM |
| COCCc1c(C)nc(CN2CCCC2)nc1N1CCOc2c(C)cc(-c3cnc4sc(N)nc4c3)cc2C1 | ≤ 100 nM |
| Cc1cc(-c2cnc3sc(N)nc3c2)cc2c1OCCN(c1nc([C@@H]3CC(F)(F)CN3)nc(C)c1C(C)C)C2 | ≤ 100 nM |
| Cc1cc(-c2cnc(Cl)c(NS(C)(=O)=O)c2)cc2c1OCCN(c1nc(N)ncc1C(F)(F)F)C2 | ≤ 100 nM |
| Cc1cc(-c2nnc(N)s2)cc2c1OCCN(c1ncncc1C(C)C)C2 | ≤ 100 nM |
| CCN(Cc1nc(C)c(C(C)C)c(N2CCOc3c(C)cc(-c4nnc(N)s4)cc3C2)n1)CC(F)F | ≤ 100 nM |

| Structure (SMILES) | IC50 |
| --- | --- |
| Cc1cc(-c2nnc(N)s2)cc2c1OCCN(c1ncnc(C)c1C)C2 | ≤ 100 nM |
| Cc1cc(-c2cnc3sc(N)nc3c2)cc2c1OCCN(c1ncccc1C#N)C2 | 100 to 500 nM |
| Cc1cc(-c2ccc3c(c2)OCO3)cc2c1OCCN(c1nc(N)nc(C)c1C(C)C)C2 | ≤ 100 nM |
| Cc1cc(-c2cnc(Cl)c(NS(C)(=O)=O)c2)cc2c1OCCN(c1ncc(C(F)(F)F)c(N)n1)C2 | ≤ 100 nM |
| CSc1nc(Cl)c(C(C)(C)O)c(N2CCOc3c(C)cc(-c4cnc5sc(N)nc5c4)cc3C2)n1 | 100 to 500 nM |
| Cc1nc2ccc(-c3cc(C)c4c(c3)CN(c3nc(N)nc(C)c3C(C)C)CCO4)cc2[nH]1 | ≤ 100 nM |
| COCCc1nc(C)c(C(C)C)c(N2CCOc3c(C)cc(-c4cnc(Cl)c(NS(C)(=O)=O)c4)cc3C2)n1 | ≤ 100 nM |
| Cc1cc(-c2nnc(N)s2)cc2c1OCCN(c1nc(N)nc(C)c1C(C)C)C2 | ≤ 100 nM |
| Cc1cc(-c2cnc3sc(N)nc3c2)cc2c1OCCN(c1nc(CN(C)C)nc(C)c1C(C)C)C2 | ≤ 100 nM |
| Cc1nc(C)c(C(C)C)c(N2CCOc3c(C)cc(-c4cnc5sc(N)nc5c4)cc3C2)n1 | ≤ 100 nM |
| C=CCc1c(C)nc(N)nc1N1CCOc2c(C)cc(-c3cnc4sc(N)nc4c3)cc2C1 | ≤ 100 nM |
| C=Cc1c(CC)nc(N)nc1N1CCOc2c(C)cc(-c3cnc4sc(N)nc4c3)cc2C1 | ≤ 100 nM |
| Cc1cc(-c2cnc3sc(N)nc3c2)cc2c1OCCN(c1ncc(F)c(N)n1)C2 | ≤ 100 nM |
| C#CCc1c(C)nc(C)nc1N1CCOc2c(C)cc(-c3cnc4sc(N)nc4c3)cc2C1 | ≤ 100 nM |
| Cc1cc(-c2cnc3sc(N)nc3c2)cc2c1OCCN(c1nc([S+](C)[O-])nc(C)c1C(C)C)C2 (configuration not stated) | ≤ 100 nM |
| Cc1cc(-c2cnc3sc(N)nc3c2)cc2c1OCCN(c1nc(CN)nc(C)c1C(C)C)C2 | ≤ 100 nM |
| Cc1cc(-c2cnc3sc(N)nc3c2)cc2c1OCCN(c1nc(CO)nc(C)c1C(C)C)C2 | ≤ 100 nM |
| Cc1cc(-c2cnc3sc(N)nc3c2)cc2c1OCCN(c1ccc(C#N)cn1)C2 | 100 to 500 nM |
| Cc1cc(-c2cnc(N)c(S(N)(=O)=O)c2)cc2c1OCCN(c1nc(N)nc(C)c1C(C)C)C2 | ≤ 100 nM |
| Cc1cnc(N2CCOc3c(C)cc(-c4cnc5sc(N)nc5c4)cc3C2)nc1N | 100 to 500 nM |
| C=C(C)c1c(C)nc(N)nc1N1CCOc2c(C)cc(-c3cnc4sc(N)nc4c3)cc2C1 | ≤ 100 nM |
| Cc1cc(-c2cnc3sc(N)nc3c2)cc2c1OCCN(c1ncncc1C(C)C)C2 | ≤ 100 nM |
| Cc1cc(-c2cnc3sc(N)nc3c2)cc2c1OCCN(c1ncccc1C(N)=O)C2 | 100 to 500 nM |
| Cc1cc(-c2ccn[nH]2)cc2c1OCCN(c1nc(N)nc(C)c1C(C)C)C2 | ≤ 100 nM |
| Cc1cc(-c2cnc3sc(N)nc3c2)cc2c1OCCN(c1nc(N)c(C#N)c(C)c1C#N)C2 | ≤ 100 nM |
